This passage reports IC50 results from paper PMC10367051, “Comprehensive Mechanistic View of the Hydrolysis of Oxadiazole-Based Inhibitors by Histone Deacetylase 6 (HDAC6)” (ACS Chemical Biology, 2023).

Where only a bound is given, the exact number is not on record here.

Common to all, as to type: biochemical
In assay [1] the target is T1, HDAC9 (Homo sapiens, UniProt Q9UKV0).
T1 construct: TwinStrep-FLAG-HALO (N, cleaved yes); made in house; host or cells: HEK293/T17
Description: Fluorometric HDAC inhibition assay, HDAC9. The settings on record: purified human protein; Boc-[Lys-TFA]-AMC substrate 10 μM; 15 min preincubation. As for the experimental part:
(§1) Large-scale expression of recombinant human HDACs was carried out as described previously.[32],[37] Briefly, HEK293/T17 cells were transiently transfected with expression pMM222 plasmids comprising N-terminally tagged (TwinStrep-FLAG-HALO tag; Figure S1) HDAC genes using linear poly(ethyleneimine) (PEI, Polysciences Inc.). Cells were harvested three days post-transfection, and cell pellets were resuspended in the lysis buffer (100 mM Tris-HCl, 10 mM NaCl, 5 mM KCl, 2 mM MgCl2, and 10% glycerol at pH 8.0). Cells were disrupted by sonication, cell lysates were cleared by centrifugation, and soluble fusion proteins were first purified by Streptactin affinity chromatography (IBA). For all HDACs but HDACs 1, 10, and 11, the N-terminal tag was cleaved off overnight by the addition of TEV protease (10:1 HDAC/TEV ratio). Size-exclusion chromatography on a Superose 6 column (GE Healthcare Bio-Sciences; running buffer 30 mM HEPES, 140 mM NaCl, 10 mM KCl, 3% glycerol, and 0.25 mM TCEP) was used as the final purification step for all HDAC constructs.
(§2) Optimized fluorometric assays were used to determine inhibition constants of studied compounds against individual HDAC isoforms as described previously.[32] Briefly, reactions were performed in the activity buffer comprising 50 mM HEPES, 140 mM NaCl, and 10 mM KCl at pH 7.4 supplemented with 1 mg mL^–1 bovine serum albumin (BSA), 1 mM tris(2-carboxyethyl)phosphine (TCEP), 10 μM substrates, and optimized concentrations of HDACs. The Ac-Gly-Ala-[Lys-Ac]-7-amino-methylcoumarylamide (AMC) substrate was used to profile HDACs 1, 2, 3, and 6; Boc-[Lys-TFA]-7-amino-methylcoumarylamide was used for HDACs 4, 5, 7, 8, and 9 (both substrates: Bachem); fluorescein-labeled N8-acetylspermidine was used for HDAC10;[32] and an internally quenched TNFα-derived peptide derivative was used for HDAC11.[39] Deacetylation reactions were monitored either by high-performance liquid chromatography (HPLC) (HDAC10) or by quantification of released AMC (λex/λem = 365/440 nm) using a CLARIOstar plate reader (BMG Labtech GmbH).

The target of assay [2] is T2, zHDAC6 (Y745F) (Danio rerio, UniProt F8W4B7, Y745F).
T2 construct: Danio rerio HDAC6 (amino acids 440–798; zHDAC6); His (N, cleaved yes); MBP (N, cleaved yes); made in house; host or cells: RIPL Escherichia coli
T2 sequence (F8W4B7 440-798 Y745F): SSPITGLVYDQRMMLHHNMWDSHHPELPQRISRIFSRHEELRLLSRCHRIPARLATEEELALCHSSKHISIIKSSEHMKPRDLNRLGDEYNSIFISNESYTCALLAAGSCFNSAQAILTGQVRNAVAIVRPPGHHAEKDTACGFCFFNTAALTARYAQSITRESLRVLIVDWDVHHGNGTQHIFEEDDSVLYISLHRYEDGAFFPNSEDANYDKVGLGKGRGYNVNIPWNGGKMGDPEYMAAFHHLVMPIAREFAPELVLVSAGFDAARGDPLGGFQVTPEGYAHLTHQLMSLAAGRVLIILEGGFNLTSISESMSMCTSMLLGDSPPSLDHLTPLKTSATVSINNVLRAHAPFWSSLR
Description: Inhibition assay, zebrafish HDAC6 catalytic DD2 domain, Y745F mutant. As to the method:
The second catalytic domain of Danio rerio HDAC6 (amino acids 440–798; zHDAC6) was expressed in RIPL Escherichia coli as described previously using the pEC566-zHDAC6 expression vector.[16],[38] Briefly, bacteria were incubated at 37 °C with shaking (250 rpm) until the optical density reached an OD600 = 0.5. Then, the culture was cooled to 18 °C for 1 h, and recombinant protein expression was induced by the addition of 75 μM isopropyl β-D-1-thiogalactopyranoside together with 200 μM ZnSO4. The culture was grown at 18 °C for an additional 18 h and harvested by centrifugation at 5500g for 15 min. The cell pellet was resuspended in the lysis buffer (50 mM phosphate, 300 mM NaCl, 10% glycerol, and 20 mM imidazole at pH 8; 5 mL g^–1 bacterial pellet) and lysed by three passages through EmulsiFlex (Avestin). Cell lysates were centrifuged (15,000g at 4 °C for 20 min), and the fusion protein in the supernatant was purified via Ni-NTA chromatography. Fractions containing the His-MBP-HDAC6 fusion were concentrated to 2 mg mL^–1 and cleaved overnight by the addition of TEV protease (zHDAC6/TEV 1:20 ratio). The cleaved tag and the TEV protease were sequentially removed using amylose (New England Biolabs) and HisTrap columns (Cytiva), and zHDAC6 was further purified by size-exclusion chromatography on a HiLoad Superdex 75 pg column (GE Healthcare Bio-Sciences). Fractions containing zHDAC6 were pooled, concentrated to 10 mg mL^–1, flash-frozen in liquid nitrogen, and stored at −80 °C. The purity of protein preparations was monitored by SDS-PAGE (Figure S2).
The zHDAC6 mutants (Y745F and H574A) were constructed using the Quick-change site-directed mutagenesis protocol with the pEC566-zHDAC6 expression plasmid as a template. Both mutants were expressed and purified as described above for wild-type zHDAC6 (Figure S2).
as §2

The target of assay [3] is T3, HDAC1 (Homo sapiens, UniProt Q13547).
T3 construct: made in house; host or cells: HEK293/T17
Description: Fluorometric HDAC inhibition assay, HDAC1. Conditions: purified human protein; Ac-Gly-Ala-[Lys-Ac]-AMC substrate 10 μM; 15 min preincubation. As to the method:
as §1, §2

Assay [4] addresses T4, HDAC3 (Homo sapiens, UniProt O15379).
T4 construct: TwinStrep-FLAG-HALO (N, cleaved yes); made in house; host or cells: HEK293/T17
The assay can be described thus: Fluorometric HDAC inhibition assay, HDAC3. Conditions: purified human protein; Ac-Gly-Ala-[Lys-Ac]-AMC substrate 10 μM; 15 min preincubation. As to the method:
as §1, §2

The target of assay [5] is T5, HDAC11 (Homo sapiens, UniProt Q96DB2).
T5 construct: made in house; host or cells: HEK293/T17
T5 sequence (Q96DB2 1-347): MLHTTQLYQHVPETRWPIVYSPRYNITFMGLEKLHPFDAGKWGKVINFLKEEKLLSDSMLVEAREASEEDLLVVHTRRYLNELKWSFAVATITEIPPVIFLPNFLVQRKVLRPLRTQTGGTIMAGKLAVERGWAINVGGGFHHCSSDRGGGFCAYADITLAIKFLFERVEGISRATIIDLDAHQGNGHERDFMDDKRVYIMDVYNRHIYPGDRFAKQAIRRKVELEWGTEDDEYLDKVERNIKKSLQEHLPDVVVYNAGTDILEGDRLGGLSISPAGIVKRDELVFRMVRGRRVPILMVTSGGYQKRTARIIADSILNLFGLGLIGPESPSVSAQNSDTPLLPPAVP
Description: HDAC11 inhibition assay (internally quenched peptide). Conditions: purified human protein; internally quenched TNFα-derived peptide substrate; 15 min preincubation. As for the experimental part:
as §1, §2

T4 sequence (O15379 whole entry): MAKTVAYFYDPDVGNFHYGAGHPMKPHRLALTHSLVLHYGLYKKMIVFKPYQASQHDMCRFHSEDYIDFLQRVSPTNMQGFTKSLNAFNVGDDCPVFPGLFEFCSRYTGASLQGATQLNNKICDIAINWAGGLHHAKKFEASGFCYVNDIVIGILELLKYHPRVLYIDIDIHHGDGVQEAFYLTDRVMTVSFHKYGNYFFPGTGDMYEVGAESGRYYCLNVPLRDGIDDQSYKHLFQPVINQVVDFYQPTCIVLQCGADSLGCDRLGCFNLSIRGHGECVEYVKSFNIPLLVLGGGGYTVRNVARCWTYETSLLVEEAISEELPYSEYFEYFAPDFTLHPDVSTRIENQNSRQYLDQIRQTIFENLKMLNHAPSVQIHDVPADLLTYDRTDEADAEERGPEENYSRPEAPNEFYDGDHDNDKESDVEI
T4 sequence (Q9Y618 389-480 partner limits assumed): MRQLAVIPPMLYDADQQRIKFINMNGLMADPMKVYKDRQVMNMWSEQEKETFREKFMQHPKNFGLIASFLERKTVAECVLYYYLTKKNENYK
T3 sequence (Q13547 whole entry): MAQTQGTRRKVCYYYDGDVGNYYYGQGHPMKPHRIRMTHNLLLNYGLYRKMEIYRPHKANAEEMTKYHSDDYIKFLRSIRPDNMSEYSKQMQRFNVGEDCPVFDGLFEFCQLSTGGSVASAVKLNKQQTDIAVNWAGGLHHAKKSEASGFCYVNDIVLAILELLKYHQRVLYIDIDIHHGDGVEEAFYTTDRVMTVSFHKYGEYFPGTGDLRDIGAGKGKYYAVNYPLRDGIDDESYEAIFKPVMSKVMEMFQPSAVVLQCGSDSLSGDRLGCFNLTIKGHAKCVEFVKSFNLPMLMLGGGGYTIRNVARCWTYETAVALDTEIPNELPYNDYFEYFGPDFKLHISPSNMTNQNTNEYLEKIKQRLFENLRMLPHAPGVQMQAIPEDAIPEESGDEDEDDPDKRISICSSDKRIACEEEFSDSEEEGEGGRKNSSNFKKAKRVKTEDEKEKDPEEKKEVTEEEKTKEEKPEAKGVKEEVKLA
T1 sequence (Q9UKV0 whole entry): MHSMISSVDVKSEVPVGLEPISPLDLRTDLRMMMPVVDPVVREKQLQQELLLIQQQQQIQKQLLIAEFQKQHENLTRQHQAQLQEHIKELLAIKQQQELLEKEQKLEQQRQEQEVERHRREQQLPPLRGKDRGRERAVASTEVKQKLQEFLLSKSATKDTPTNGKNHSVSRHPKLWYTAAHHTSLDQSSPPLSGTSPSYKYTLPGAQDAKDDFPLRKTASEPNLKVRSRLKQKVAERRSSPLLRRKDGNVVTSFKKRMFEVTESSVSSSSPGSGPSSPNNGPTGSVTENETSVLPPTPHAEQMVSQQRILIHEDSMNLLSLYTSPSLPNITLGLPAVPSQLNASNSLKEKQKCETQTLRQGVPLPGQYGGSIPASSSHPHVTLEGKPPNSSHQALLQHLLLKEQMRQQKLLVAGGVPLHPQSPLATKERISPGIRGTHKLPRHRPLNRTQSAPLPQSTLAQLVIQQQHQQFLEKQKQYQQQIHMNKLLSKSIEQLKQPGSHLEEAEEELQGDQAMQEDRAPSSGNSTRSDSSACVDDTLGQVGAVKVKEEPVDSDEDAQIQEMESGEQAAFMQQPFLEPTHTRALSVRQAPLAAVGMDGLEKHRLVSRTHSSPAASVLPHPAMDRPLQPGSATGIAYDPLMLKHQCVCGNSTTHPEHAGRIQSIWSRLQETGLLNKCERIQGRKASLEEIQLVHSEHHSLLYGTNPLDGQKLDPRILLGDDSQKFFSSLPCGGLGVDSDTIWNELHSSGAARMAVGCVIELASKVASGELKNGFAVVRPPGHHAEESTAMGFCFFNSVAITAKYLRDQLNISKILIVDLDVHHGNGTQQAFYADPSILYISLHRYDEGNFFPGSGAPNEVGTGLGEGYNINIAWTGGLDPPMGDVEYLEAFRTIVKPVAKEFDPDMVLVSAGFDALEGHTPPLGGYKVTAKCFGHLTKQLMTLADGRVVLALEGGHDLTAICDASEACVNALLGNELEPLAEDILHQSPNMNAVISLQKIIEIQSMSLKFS

A word on the IC50: it is the point on the concentration scale where inhibition reaches its midpoint. High values mean weaker potency in that assay, low ones greater potency in that assay. As for `CS(=O)(=O)N(Cc1ccc(C(=O)NN)cn1)c1cccc(Cl)c1` [compound 4], the 50% inhibitory concentration (IC50) in assay [1] is more than 20 µM; in assay [2], more than 50 µM; in assay [3] it was more than 20 µM; in assay [4] it was more than 20 µM; in assay [5], more than 20 µM.
As for `CS(=O)(=O)N(Cc1ccc(C(=O)NNC(=O)C(F)(F)F)cn1)c1cccc(Cl)c1` [compound 5], the half-inhibitory concentration (IC50) in assay [2] is more than 20 µM; in assay [3], 9.17 µM.
On to `CS(=O)(=O)N(Cc1ccc(C(=O)NNC(=O)C(F)F)cn1)c1cccc(Cl)c1` [compound 6], for which the IC50 in assay [2] was more than 50 µM; in assay [3], more than 20 µM.
Consider `CS(=O)(=O)N(Cc1ccc(-c2nnc(C(F)(F)F)o2)cn1)c1cccc(Cl)c1` [compound 7], for which the IC50 in assay [1] is more than 20 µM; in assay [2], 0.311 ± 0.15 µM; in assay [3], more than 20 µM; in assay [4] it was more than 20 µM; in assay [5] it was more than 20 µM.
Regarding `CS(=O)(=O)N(Cc1ccc(-c2nnc(C(F)F)o2)cn1)c1cccc(Cl)c1` [compound 8], the IC50 in assay [1] was more than 20 µM; in assay [2], 0.075 ± 0.026 µM; in assay [3], more than 20 µM; in assay [4], more than 20 µM; in assay [5], more than 20 µM.
